Assay results reported in US20100069340A1, “PHARMACEUTICAL COMPOSITIONS OF AN SRC KINASE INHIBITOR AND AN AROMATASE INHIBITOR” (Wyeth, priority 2008, published 2010).
Where two headings read alike, the source gives them in different places.

Columns and labels:
MDA-MB-361 = assay: Cell proliferation assay (CellTiter Glo), MDA-MB-361; format: cell-based; settings: for IC50: Homo sapiens
Procedure: (§1) Cell lines were obtained from ATCC. Estrogen was obtained from SIGMA, 4-hydroxytamoxifen was obtained from SIGMA, Bosutinib was used for these studies. Charcoal-stripped serum and phenol red-free medium was obtained from Invitrogen. CellTiter Glo was obtained from Promega.
(§2) Cell cultures. Proliferation assays with cells in complete fetal calf serum were performed with medium containing phenol red. For all assays examining estrogen-dependence, cells were cultured in phenol red-free medium; DMEM/F12 (MCF7), RPMI1640 (MDA-MB-361, T47D) MEM (BT20, MDA-MB-231) McCoys5A modified (SKBR3), Leibowitz' L15 medium supplemented with 10 ng/mL insulin (MDA-MB-435 and MDA-MB-468) with 10% fetal bovine serum supplemented with glutamine and gentamicin. For proliferation assays, trypsinized cells were subjected to three cycles of centrifugation and resuspension in phenol red-free medium supplemented with charcoal stripped medium (5% final), glutamine and Pen/Strep. Cells were plated on day 0, with or without estrogen (10 nM final concentration). On day 1, 4-hydroxytamoxifen and SKI-606 or DMSO were added as a serial dilution. Cells were incubated for 7 days, after which CellTiter Glo (Promega) was added as recommended by the manufacturer. After mixing and two hours incubation on the bench, plates were read on an Envision reader. […] The 10 uM data point was dropped for these two lines since there was a clear plateau prior to the sharp drop in luminescence observed at 10 uM compound. The IC50 was calculated using a floating minima corresponding to the lowest luminescence value at 5 uM.
(§3) Cell proliferation assays were performed in two formats; a three day proliferation assay in fully supplemented medium with phenol red, and a 7 day proliferation assay in phenol red free medium supplemented with charcoal-stripped medium. […] ER positive T47D cells were slightly more sensitive to SKI-606 in the presence of estrogen. BT20 cells were equally sensitive to SKI-606 in stripped serum medium, regardless of whether estrogen was present.
(§4) Proliferation data for SKI-606 in various breast tumor lines in complete medium (10% FCS) and charcoal stripped serum with no phenol red (no E2, E2) with and without 10 nM estrogen. The complete medium data were obtained in 3-day assays, while stripped serum assays were extended for 7 days with one change of medium at day 5. The IC50 values for the BT20 line was calculated using the “plateau” cell number evident at 5 μM SKI-606.

MCF7 = assay: Cell proliferation assay (CellTiter Glo), MCF7; format: cell-based; settings: for IC50: Homo sapiens
Procedure: as §1, §2, §3, §4

BT-20 (ER neg) = assay: Cell proliferation assay (CellTiter Glo), BT-20; format: cell-based; settings: for IC50: Homo sapiens, BT-20, 168 h, 7 Day assay, charcoal stripped serum, no phenol red, plateau cell number at 5 μM used
Procedure: as §1, §2
as §3, with “present. […]” for “present.”

clinical = settings: for AUC: Mean steady state AUC; for Cmax: Mean steady state Cmax
Procedure: A phase 1 single-agent trial of bosutinib to determine the safety, tolerability, and pharmacokinetics of orally administered bosutinib in subjects with advanced-stage, previously treated, solid tumors is currently ongoing. […] Subjects are continued on bosutinib until disease progression, or the occurrence of a significant toxicity considered possibly related to bosutinib. Dosing was started at 50 mg per day. Subsequent dose levels studied have included 100 mg, 200 mg, 300 mg, 400 mg, 500 mg and 600 mg. Safety is assessed for 21 days in 3 to 6 subjects before beginning the cohort at the next incremental dose.

T47D = assay: Cell proliferation assay (CellTiter Glo), T47D; format: cell-based; settings: Homo sapiens, 168 h, 7 Day assay, charcoal stripped serum, no phenol red
Procedure: as §1
as §2, with “Cells were incubated for 7 days, after which CellTiter Glo (Promega) was added as recommended by the manufacturer.” left out, “The IC50 was calculated using a floating minima corresponding to the lowest luminescence value at 5 uM.” left out

BT474 = assay: Cell proliferation assay (CellTiter Glo), BT474; format: cell-based; settings: Homo sapiens, BT-474, 168 h, 7 Day assay, charcoal stripped serum, no phenol red
Procedure: as §1
Cell cultures. Proliferation assays with cells in complete fetal calf serum were performed with medium containing phenol red. For all assays examining estrogen-dependence, cells were cultured in phenol red-free medium; DMEM/F12 (MCF7), RPMI1640 (MDA-MB-361, T47D) MEM (BT20, MDA-MB-231) McCoys5A modified (SKBR3), Leibowitz' L15 medium supplemented with 10 ng/mL insulin (MDA-MB-435 and MDA-MB-468) with 10% fetal bovine serum supplemented with glutamine and gentamicin. For proliferation assays, trypsinized cells were subjected to three cycles of centrifugation and resuspension in phenol red-free medium supplemented with charcoal stripped medium (5% final), glutamine and Pen/Strep. Cells were plated on day 0, with or without estrogen (10 nM final concentration). On day 1, 4-hydroxytamoxifen and SKI-606 or DMSO were added as a serial dilution. Cells were incubated for 7 days, after which CellTiter Glo (Promega) was added as recommended by the manufacturer. After mixing and two hours incubation on the bench, plates were read on an Envision reader. […]

SKBR3 (ER neg) = assay: Cell proliferation assay (CellTiter Glo), SKBR3; format: cell-based; settings: Homo sapiens
Procedure: as §1
Cell cultures. Proliferation assays with cells in complete fetal calf serum were performed with medium containing phenol red. For all assays examining estrogen-dependence, cells were cultured in phenol red-free medium; DMEM/F12 (MCF7), RPMI1640 (MDA-MB-361, T47D) MEM (BT20, MDA-MB-231) McCoys5A modified (SKBR3), Leibowitz' L15 medium supplemented with 10 ng/mL insulin (MDA-MB-435 and MDA-MB-468) with 10% fetal bovine serum supplemented with glutamine and gentamicin. For proliferation assays, trypsinized cells were subjected to three cycles of centrifugation and resuspension in phenol red-free medium supplemented with charcoal stripped medium (5% final), glutamine and Pen/Strep. Cells were plated on day 0, with or without estrogen (10 nM final concentration). On day 1, 4-hydroxytamoxifen and SKI-606 or DMSO were added as a serial dilution. Cells were incubated for 7 days, after which CellTiter Glo (Promega) was added as recommended by the manufacturer. After mixing and two hours incubation on the bench, plates were read on an Envision reader. […] The IC50 was calculated using a floating minima corresponding to the lowest luminescence value at 5 uM.
Cell proliferation assays were performed in two formats; a three day proliferation assay in fully supplemented medium with phenol red, and a 7 day proliferation assay in phenol red free medium supplemented with charcoal-stripped medium.
The complete medium data were obtained in 3-day assays, while stripped serum assays were extended for 7 days with one change of medium at day 5.

MDA-MB-435 (ER neg) = assay: Cell proliferation assay, MDA-MB-435; format: cell-based; settings: Homo sapiens, MDA-MB-435, 72 h; 3 Day assay, complete medium (10% FCS)
Procedure: as §1
as §2, with “Cells were incubated for 7 days, after which CellTiter Glo (Promega) was added as recommended by the manufacturer.” left out, “The IC50 was calculated using a floating minima corresponding to the lowest luminescence value at 5 uM.” left out

MDA-MB-231 (ER neg) = assay: Cell proliferation assay (CellTiter Glo), MDA-MB-231; format: cell-based; settings: Homo sapiens
Procedure: as §1, §2
as §3, with “present. […]” for “present.”

[1] = 10 nM estrogen, read-out: IC50 (uM) E2
[2] = without estrogen, read-out: IC50 (uM) no E2

COc1cc(Nc2c(C#N)cnc3cc(OCCCN4CCN(C)CC4)c(OC)cc23)c(Cl)cc1Cl [bosutinib]
toxicity at maximal concentration (MDA-MB-361; 10 uM SKI-606, MDA-MB-361 cells): some toxicity was seen | IC50 (MDA-MB-361; MDA-MB-361, 72 h, 3 Day assay, complete medium (10% FCS), read-out: IC50 (uM) 10% FCS): 2.5 µM | IC50 (MDA-MB-361; MDA-MB-361, 168 h, 7 Day assay, charcoal stripped serum, no phenol red, 10 nM estrogen, read-out: IC50 (uM) E2): 0.38 µM | IC50 (MDA-MB-361; MDA-MB-361, 168 h, 7 Day assay, charcoal stripped serum, no phenol red, without estrogen, read-out: IC50 (uM) no E2): 0.74 µM | effect on estrogen-dependent and estrogen-independent growth (MDA-MB-361; MDA-MB-361): inhibited estrogen-dependent and estrogen-independent growth | IC50 (MCF7; MCF7, 72 h, 3 Day assay, complete medium (10% FCS), read-out: IC50 (uM) 10% FCS): 6.5 µM | IC50 (MCF7; MCF7, 168 h, 7 Day assay, charcoal stripped serum, no phenol red, 10 nM estrogen, read-out: IC50 (uM) E2): 0.86 µM | IC50 (MCF7; MCF7, 168 h, 7 Day assay, charcoal stripped serum, no phenol red, without estrogen, cells did not grow well, data less reliable, read-out: IC50 (uM) no E2): 0.08 µM | effect on estrogen-dependent and estrogen-independent growth (MCF7; MCF7): inhibited estrogen-dependent and estrogen-independent growth | toxicity at maximal concentration (BT-20 (ER neg); 10 uM SKI-606, BT20 cells): some toxicity was seen | IC50 (BT-20 (ER neg); [1]): 0.24 µM | IC50 (BT-20 (ER neg); [2]): 0.28 µM | Mean steady state AUC (clinical; human, in vivo, po): 3660 ng·h/mL | Mean steady state Cmax (clinical; human, in vivo, po): 200 ng/mL | Multiple-dose exposure versus single-dose exposure (clinical; human, in vivo, po): 2-3 fold | Tmax (clinical; human, in vivo, po): 3 to 6 h | half-life (clinical; human, in vivo, po): 22 to 25 h | AUC (clinical; human, in vivo, po, 600 mg): 3360 ng·h/mL | Cmax (clinical; human, in vivo, po, 600 mg): 208 ng/mL | AUC (clinical; human, in vivo, po): 2580 ng·h/mL | Cmax (clinical; human, in vivo, po): 157 ng/mL | Dose limiting toxicities observed (clinical; in vivo, po): nausea, vomiting, diarrhea, and rash | protocol-defined maximum tolerable dose (clinical; subjects with multiple-relapsed solid tumors, oral): 500 mg daily | IC50 (T47D; [1]): 1.28 µM | IC50 (T47D; [2]): 2.85 µM | IC50 (BT474; [1]): 2.32 µM | IC50 (BT474; [2]): 2.22 µM | IC50 (SKBR3 (ER neg); SK-BR-3, 72 h, 3 Day assay, complete medium (10% FCS), read-out: IC50 (uM) 10% FCS): 1.5 µM | IC50 (SKBR3 (ER neg); SK-BR-3, 168 h, 7 Day assay, charcoal stripped serum, no phenol red, 10 nM estrogen, read-out: IC50 (uM) E2): 1.38 µM | IC50 (SKBR3 (ER neg); SK-BR-3, 168 h, 7 Day assay, charcoal stripped serum, no phenol red, without estrogen, read-out: IC50 (uM) no E2): 1.43 µM | IC50 (MDA-MB-435 (ER neg)): 3.4 µM | IC50 (MDA-MB-231 (ER neg); MDA-MB-231, 72 h, 3 Day assay, complete medium (10% FCS), read-out: IC50 (uM) 10% FCS): 4.3 µM | IC50 (MDA-MB-231 (ER neg); MDA-MB-231, 168 h, 7 Day assay, charcoal stripped serum, no phenol red, 10 nM estrogen, read-out: IC50 (uM) E2): 5.05 µM | IC50 (MDA-MB-231 (ER neg); MDA-MB-231, 168 h, 7 Day assay, charcoal stripped serum, no phenol red, without estrogen, read-out: IC50 (uM) no E2): 5.1 µM
